Test results taken from US20240117357A1, “REGULATION OF METABOLISM AND OBESITY BY MITOCHONDRIAL MUL1 E3 UBIQUITIN LIGASE” (University of Central Florida Research Foundation, Inc., priority 2022, published 2024).

Assays:
Assay type in all cases: cell-based, human
HEK293 Akt2(−/−) cells [1] = assay: 13C-NMR isotopomer metabolic flux analysis ([U-13C]glucose, tcaCALC)
Method: For NMR analysis, approximately 20×10^6 HEK293 WT, MUL1(−/−), or Akt2(−/−) cells were grown to confluency following treatment with perifosine, or chetomin inhibitors as well as with the HIF-1α activator DMOG and DMSO was used as vehicle control. Freshly prepared [U-^13C]glucose tracer containing medium (glucose free DMEM with 10% dialyzed FBS and 15 mM [U-^13C]glucose) was added to the cells for 6 hours at 37° C. Cells were scraped from the plates, washed twice with cold PBS, and immediately snap frozen in liquid nitrogen (161).
Cell pellets were bead-homogenized in 1 ml acetonitrile:isopropanol:water (3:3:2, v:v:v), centrifuged at 10,000×g for 15 min at 4° C. and the supernatant removed and dried in a speedvac. Dried cell extracts of each sample were re-suspended in 0.5 ml of acetonitrile: water (1:1, v:v) solution, vortexed, and centrifuged for 15 min at 10,000×g at 4° C. The supernatant was transferred to a new tube and dried in a speedvac The dried extract of each cell pellet was re-suspended in phosphate buffer (prepared in Deuterium oxide (D2O)) for NMR analysis. […]
^1H-NMR spectra were collected on an 800 MHz NMR, equipped with a 5 mm TXI CryoProbe and Avance III console (Bruker Biospin), using TopSpin software (version 3.6.3). […] The conventional ^1H-decoupled ^13C-NMR spectra were acquired for each sample at 150.13 MHz, using a ^13C-optimized 1.5 mm high temperature superconducting (HTS) probe on an Agilent NMR system with the magnetic field strength of 14 tesla. ^13C-NMR spectra were recorded using an acquisition time (AQ) of 1.5 sec, relaxation delay (dl) of 1.5 sec, flip angle of 45°, acquired size (TD) of 54 k with the spectral width of 250 ppm (Ramaswamy et al., 2013). […]
The positional ^13C-isotopomer distribution pattern of glutamate was determined by ^13C-NMR. ^13C-NMR resonances of various isotopomers of glutamate are identified from the ^13C-^13C J-coupling constants and quantified by line fitting to the glutamate resonances at C2, C3, C4, and C5 positions. […]

HEK293 WT cells = assay: Glycolytic Stress Test (ECAR, Seahorse XFe24); details: DMOG 100 μM for 4 hours
Method: (§1) To monitor glycolysis in the cell lines, the Glycolysis Stress Test was performed using a XFe24 Extracellular Flux Analyzer (Agilent Technologies). HEK293 WT, MUL1(−/−) and Akt2(−/−) cells were seeded in triplicates on poly-lysine D-coated XFe24 microplates at a density of 60,000 cells per well in assay medium (XF DMEM pH 7.4 containing 2 mM glutamine and 1 mM sodium pyruvate without glucose) for one hour in a CO2-free incubator. Extracellular acidification rate (ECAR) was measured under basal conditions and again after sequential injections of glucose (10 mM) in port A, ATP synthase inhibitor oligomycin (1.5 μM) in port B, and the glycolysis inhibitor 2-deoxyglucose (2-DG) (300 mM) in port C. Basal glycolysis was assessed by recording three measurements, following the addition of each compound by a 3-2-3 mix/measurement cycle. Glycolysis is the ECAR after the addition of glucose. Glycolytic capacity is the increase in ECAR after the injection of oligomycin following glucose. Glycolytic reserve is the difference between glycolytic capacity and glycolysis. Data analysis was performed using Report Generators software for Glycolysis Stress Test (Agilent Technologies).

HEK293 Akt2(−/−) cells [2] = assay: Glycolytic Stress Test (ECAR, Seahorse XFe24); details: DMOG 100 μM for 4 hours
Method: as §1

HEK293 MUL1(−/−) cells [3] = assay: Glycolytic Stress Test (ECAR, Seahorse XFe24); details: 2.5 μM perifosine or 500 nM chetomin for 4 hours
Method: as §1

HEK293 MUL1(−/−) cells [4] = assay: Mitochondrial Stress Test (OCR, Seahorse XFe24); details: for oxygen consumption rate (OCR): HEK293 MUL1(−/−) cells, 2.5 μM perifosine or 500 nM chetomin for 4 hours; for mitochondrial respiration: at the concentration used (2.5 μM perifosine, 500 nM chetomin, 4 hours)
Method: Mitochondrial stress assay was performed using an XFe24 Extracellular Flux Analyzer (Agilent Technologies) following the workflow provided by the manufacturer's instructions. Briefly, for Oxygen Consumption Rate (OCR) measurements, HEK293 WT and MUL1(−/−) cells were seeded in triplicates on poly-lysine D-coated XF24 microplates at a density of approximately 60,000 cells per well in assay medium (XF DMEM medium pH 7.4 supplemented with 10 mM glucose, 2 mM glutamine, and 1 mM pyruvate), followed by incubation at 37° C. in CO2-free incubator for 60 minutes. Three baseline measurements were recorded before the injection of the following compounds: 1.5 μM of oligomycin in port A, 1.0 μM of FCCP in port B and 0.5 μM rotenone/antimycin in port C. Data analysis was performed using Cell Mito Stress Test Report Generators software (Agilent Technologies).

HIF-1α = assay: Western blot of HIF-1α target protein GLUT1; details: 500 nM chetomin for 4 hours
Method: (§2) Control (untreated) as well as cells treated with perifosine, chetomin or DMOG were lysed using a Triton X-100 based lysis buffer (1% Triton X-100, 10% glycerol, 150 mM NaCl, 20 mM Tris (pH 7.5), 2 mM EDTA) in the presence of protease inhibitors (Thermo Fisher Scientific). Approximately 40 μg of whole cell extract was resuspended in SDS sample buffer, boiled for 4 minutes, and analyzed by SDS-PAGE (12% or 15% gels), then transferred onto PVDF membranes (Genesee) using a semi-dry cell transfer blot (Bio-Rad). Nonfat dry milk (4%) or 5% BSA (for Akt2 and phospho-specific antibodies) in TBST buffer (25 mM Tris-HCl, pH 8.0, 125 mM NaCl, 0.1% Tween 20) were used to block nonspecific binding of the membrane. The membranes were incubated with the indicated primary antibodies: HIF-1α (Bioss Antibodies, 1:2,000), AKT (pan), Akt1, Akt2, Akt3, phospho-Akt-T308, phospho-GSK-3β-S9, ULK1 (Cell Signaling Technology 1:2,000), GLUT1, (ABclonal 1:2,000), MFN2, and β-actin (Santa Cruz Biotechnology, 1:3,000). MUL1 and UBXN7 rabbit polyclonal antibodies were homegrown and used at 1:5,000 dilution. Secondary peroxidase-conjugated goat anti-rabbit or goat anti-mouse antibodies (Jackson ImmunoResearch) were used at 1:10,000 dilution. The membrane was visualized by enhanced chemiluminescence (ECL) (Thermo Fisher Scientific).

Akt2 = assay: Western blot of Akt2 target P-GSK-3β S9; details: 2.5 μM perifosine for 4 hours
Method: as §2

| Compound | YPC flux (HEK293 Akt2(−/−) cells [1]; Akt2(−/−)+DMOG cells compared with HEK293 WT and MUL1(−/−) cells) | PK flux (HEK293 Akt2(−/−) cells [1]; Akt2(−/−)+DMOG cells compared with HEK293 WT cells) | PK, YPC, and YS fluxes (HEK293 Akt2(−/−) cells [1]; Akt2(−/−)+DMOG vs Akt2(−/−) cells, relative to citrate synthase flux of 1) | glycolysis and glycolytic capacity (HEK293 WT cells) | glycolysis and glycolytic capacity (HEK293 Akt2(−/−) cells [2]) | ECAR and glycolysis (glycolytic function) (HEK293 MUL1(−/−) cells [3]) | oxygen consumption rate (OCR) (HEK293 MUL1(−/−) cells [4]) | mitochondrial respiration (HEK293 MUL1(−/−) cells [4]) | expression of GLUT1 (HIF-1α) | Akt2 kinase activity (P-GSK-3β S9) (Akt2) |
| --- | --- | --- | --- | --- | --- | --- | --- | --- | --- | --- |
| COC(=O)CNC(=O)C(=O)OC [DMOG, dimethyloxalyglycine] | elevated above WT, but fell short of reaching MUL1(−/−) levels | partially restored with DMOG, but did not reach the WT levels | significantly increased | unremarkable | small but significant increase |  |  |  |  |  |
| CN1C(=O)[C@]2(Cc3cn([C@]45C[C@@]67SS[C@@](CO)(C(=O)N6[C@H]4Nc4ccccc45)N(C)C7=O)c4ccccc34)SS[C@@]1(CO)C(=O)N2C [chetomin] |  |  |  |  |  | very potent inhibitor of the mitochondrial glycolytic function | further reduced | potent inhibitors of mitochondrial respiration | significantly reduces |  |
| CCCCCCCCCCCCCCCCCCOP(=O)([O-])OC1CC[N+](C)(C)CC1 [perifosine] |  |  |  |  |  | reduced ECAR and glycolysis to a level lower than the one present in HEK293 WT cells | further reduced | potent inhibitors of mitochondrial respiration |  | inhibits |
